Measurements taken from patent publication US20150366190A1, “Sustained Release Methods to Defeat Plant Pests” (BioGuard Technologies, Inc., priority 2014, published 2015).
Where “and” joins values, the source holds several entries; their conditions need not be identical. Equal values may be shown once.

Columns and labels:
[1] = Simulated rainfall / sequential aqueous leaching of dried films; type: physicochemical; parameters: depletion of supplied active by aqueous extraction / release rate, % of supplied active: concentration or dose not given beside the values; details: for release rate of active: FIG. 10; for release rate, % of supplied active: FIG. 8; for recoverable active released to water: FIG. 9
Method: (§1) Two experimental protocols were used to evaluate aqueous release and the extent of active retention. The first protocol was a rapid solvent extraction screen that involved dipping the coated specimens sequentially into vials containing 35 ml water for 1, 1, 5, and 10 minutes, then 50% MeOH for 10 minutes, and 100% MeOH for 24 hours. This protocol provided a rapid comparison of water soluble and entrained, but releasable, active fractions. The second protocol was to assess release rates based on simulated precipitation/rainfall conditions. This protocol involved maintaining test samples in successive 35 ml volumes of water for 24-hour periods for up to […], providing a cumulative daily release rate from dried films. This water extraction period was followed by a single extraction in 100% MeOH for 24 and 48 hrs to determine residual/entrained or solvent removable active. The aqueous leach procedure is considered extreme in simulating intermittent daily rainfalls of varying intensity, but does provide the rates of release for comparative purposes.
The solvent extraction method used above represents a rapid screen for the comparative entrainment behavior of actives and surfactants in the formulated latex system. To address the problem of foliar retention and longevity of actives using a single field application is more a function of rainfall frequency and intensity. To better understand this process under laboratory conditions, we employed a continuous/sequential aqueous (pH 6.0-6.8) leaching process, with periodic sampling and replacement of the solution over periods up to 288 hrs. This is a rather harsh leaching process, but is more representative than the water/MeOH solvent extraction procedure used for screening.
In the simulated rainfall study, we compared the aqueous extraction patterns for cyproconazole at 0.06% with 0.24% EtOH (1×) added to latex (with no surfactant), cyproconazole with […] and 0.05% PP912T added to latex, and cyproconazole with 1% EtOH (4×) and 0.05% PP912T added to latex. This combination was designed to determine formulation variables including surfactant and increased EtOH.
Aqueous extraction of formulations containing chlorothalonil and spiroxamine with latex without surfactant and with PP912T, AU-398 and AU-391A were compared to evaluate long term extraction profiles and residual active after 144 hrs of extraction, sampled at 24 hr intervals.

[2] = EtOH printed for cyproconazole only; cited from earlier work
[3] = Rapid solvent extraction screen of coated specimens (water, 50% MeOH, 100% MeOH); type: physicochemical
Method: as §1
The influence of formulation factors on cyproconazole release and entrainment from aqueous solutions containing 0.2% EtOH without latex (FIG. 1A) was compared to the subsequent EtOH studies with latex. […] This would be expected to represent the relative solubility and release of active, and likely dependent on water solubility of the active.
To determine the influence of latex on cyproconazole release, cyproconazole was first dissolved in ethanol and added to 2% latex solutions to assess the effects on cyproconazole binding with latex using solvent extractions (FIG. 1A).
The first step was to determine the solvent extractability of the non-latex formulations. This was based on readily soluble (water, 17 minutes), easily soluble (50% MeOH, 10 minutes), and relatively non-water soluble (100% MeOH, 24 hr) fractions of the formulations (FIG. 3).
A total of nine commercial surfactants (Table 1) were compared for relative entrainment of cyproconazole in latex, based on the percent of active contained in the 100% MeOH fraction (FIG. 5).
The same solvent extraction protocol was used to evaluate 2 other fungicides (chlorothalonil and spiroxamine) with differing chemistries (water solubility and solvent solubility). These were evaluated using the same solvent extraction protocol. The three surfactants that worked best with cyproconazole were used for these actives.

[4] = aqueous 0.2% EtOH, without latex, FIG. 1A

N#Cc1c(Cl)c(Cl)c(Cl)c(C#N)c1Cl [chlorothalonil]
release rate of active ([1]; latex alone, at 6 days): 63%
release rate of active ([1]; latex with surfactants, 6 days): 80-88%
active remained after extraction ([1]; without surfactant, after 6 days of extraction, FIG. 11): 16%
solvent solubility [2]: 10000 µg/mL
100% MeOH retention compared to no surfactant ([3]; latex, with PP912T and AU-398, FIG. 6): increase

CC(C1CC1)C(O)(Cn1cncn1)c1ccc(Cl)cc1 (centres unmarked) [cyproconazole]
release rate, % of supplied active ([1]; latex with AU-391A, at 6 days): 60%
release rate, % of supplied active ([1]; latex with AU-398, at 6 days): 50%
release rate, % of supplied active ([1]; latex with PP912T, at 6 days): 73%
depletion of supplied active by aqueous extraction ([1]; latex with surfactant PP912T, at 288 days, FIG. 7): 90%
time to attain 90% loss to water ([1]; latex/EtOH, FIG. 1B): 12 days
time at which aqueous loss of supplied active was 90% ([1]; without latex, FIG. 1B): 2.5 days
50% MeOH fraction of active [3, 4]: 68%
100% MeOH fraction of active [3, 4]: 13.5% and 13%
water extractable fraction of active [3, 4]: 18.5%
100% MeOH fraction of active ([3]; dissolved in ethanol, added to 2% latex solution, FIG. 1A): 32%

CCCN(CC)CC1COC2(CCC(C(C)(C)C)CC2)O1 (centres unmarked) [spiroxamine]
recoverable active released to water ([1]; latex alone, 144 hr extraction): 85%
recoverable active released to water ([1]; latex plus AU-391A, 144 hr extraction): 85%
recoverable active released to water ([1]; latex plus AU-398, 144 hr extraction): 50%
recoverable active released to water ([1]; latex plus PP912T, 144 hr extraction): 50%
effect on release compared to latex alone ([1]; latex with AU-391A): no effect
release rate compared to latex alone ([1]; latex with PP912T and AU-398): substantial reduction
active released ([1]; with latex, without surfactant, 6 days extraction, FIG. 13): 94%
release to water compared to the no-surfactant control ([3]; latex, with PP912T, AU-398 and AU-391A, FIG. 6): increased release
